Literature values in patent US10092495B2, “Use of a composition comprising avocado perseose in the protection of epidermal stem cells” (LABORATOIRES EXPANSCIENCE, priority 2013, dated 2018).

Test system: Ehrlich ascites tumor cells
Conditions: perseitol associated with a potassium ion

Structure (SMILES): OCC(O)C(O)C(O)C(O)C(O)CO (stereo not shown) [perseitol, Perseitol]
- incorporation of 3H-leucine: inhibit
